From patent US7754896B2, “Indol-alanine derivatives as selective S1P4-agonists” (Novartis AG, priority 2004, dated 2010) come the findings set out here.

Where only a bound is given, the exact number is not on record here.

The target of the assay is T1, S1P3 (Homo sapiens, UniProt Q99500).
T1 construct: expressed in transfected cells
The assay can be described thus: GTPγS binding assay, S1P3. To be noted: CHO cells expressing S1P3. It counts as biochemical. The source says:
Human S1P1 (GenBank™ accession number M31210) and S1P3 (GenBank™ accession number X83864) cDNA containing the myc sequence in front to the human S1P1 and S1P3 sequences are inserted in the pcDNA 3.1 vector. The vectors are sequenced to completion to confirm the correctness of the construct. The human S1P2 (GI: 4090955, TREMBL: 0195136) is cloned by a PCR based method. Lung cDNA (marathon cDNA) is obtained (BD Biosciences Chontech, Palo Alto, Calif. 94303, USA). Following oligonucleotides are used for the PCR reaction: forward primer CACCATGGGCAGCTTGTACTCGGAGTACCT GM CCC CAA CM GGT CCA G (1 to 45, GenBank™ accession number AF034780) and reverse primer 5′-GATTCAGACCACCGTGTTGCCCTCCAG (1062 to 1039, GenBank™ accession number AF034780), the initiation of the translation (ATG) and the stop codon are underlined. […] The amplified product of around 1100 bp is analyzed by standard agarose gel-electrophoresis. […]
Membrane proteins are prepared from wild type CHO-K1 and the CHO cell clones expressing human S1P4. […] The protein concentration is determined using the Bio Rad Protein Assay and human IgG as standard. […]

T1 sequence (Q99500 whole entry): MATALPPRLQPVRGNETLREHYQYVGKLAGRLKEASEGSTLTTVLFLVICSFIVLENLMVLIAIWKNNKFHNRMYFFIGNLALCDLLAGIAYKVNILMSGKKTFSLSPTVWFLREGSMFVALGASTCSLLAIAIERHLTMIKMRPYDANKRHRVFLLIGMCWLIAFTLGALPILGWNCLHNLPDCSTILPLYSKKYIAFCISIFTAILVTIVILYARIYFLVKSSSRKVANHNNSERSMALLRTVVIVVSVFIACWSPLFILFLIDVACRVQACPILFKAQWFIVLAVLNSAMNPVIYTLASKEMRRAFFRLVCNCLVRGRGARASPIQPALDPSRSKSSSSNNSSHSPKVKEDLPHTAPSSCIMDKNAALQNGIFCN

With `NC(CNC(=O)c1cc2c(-c3ccccc3Cc3ccccc3)cccc2[nH]1)C(=O)O` (stereo not shown) [Example 2], the EC50 is above 10 µM.
